One assay deals with T1, JAK3 (Homo sapiens, UniProt P52333).
T1 sequence (P52333 1-1124): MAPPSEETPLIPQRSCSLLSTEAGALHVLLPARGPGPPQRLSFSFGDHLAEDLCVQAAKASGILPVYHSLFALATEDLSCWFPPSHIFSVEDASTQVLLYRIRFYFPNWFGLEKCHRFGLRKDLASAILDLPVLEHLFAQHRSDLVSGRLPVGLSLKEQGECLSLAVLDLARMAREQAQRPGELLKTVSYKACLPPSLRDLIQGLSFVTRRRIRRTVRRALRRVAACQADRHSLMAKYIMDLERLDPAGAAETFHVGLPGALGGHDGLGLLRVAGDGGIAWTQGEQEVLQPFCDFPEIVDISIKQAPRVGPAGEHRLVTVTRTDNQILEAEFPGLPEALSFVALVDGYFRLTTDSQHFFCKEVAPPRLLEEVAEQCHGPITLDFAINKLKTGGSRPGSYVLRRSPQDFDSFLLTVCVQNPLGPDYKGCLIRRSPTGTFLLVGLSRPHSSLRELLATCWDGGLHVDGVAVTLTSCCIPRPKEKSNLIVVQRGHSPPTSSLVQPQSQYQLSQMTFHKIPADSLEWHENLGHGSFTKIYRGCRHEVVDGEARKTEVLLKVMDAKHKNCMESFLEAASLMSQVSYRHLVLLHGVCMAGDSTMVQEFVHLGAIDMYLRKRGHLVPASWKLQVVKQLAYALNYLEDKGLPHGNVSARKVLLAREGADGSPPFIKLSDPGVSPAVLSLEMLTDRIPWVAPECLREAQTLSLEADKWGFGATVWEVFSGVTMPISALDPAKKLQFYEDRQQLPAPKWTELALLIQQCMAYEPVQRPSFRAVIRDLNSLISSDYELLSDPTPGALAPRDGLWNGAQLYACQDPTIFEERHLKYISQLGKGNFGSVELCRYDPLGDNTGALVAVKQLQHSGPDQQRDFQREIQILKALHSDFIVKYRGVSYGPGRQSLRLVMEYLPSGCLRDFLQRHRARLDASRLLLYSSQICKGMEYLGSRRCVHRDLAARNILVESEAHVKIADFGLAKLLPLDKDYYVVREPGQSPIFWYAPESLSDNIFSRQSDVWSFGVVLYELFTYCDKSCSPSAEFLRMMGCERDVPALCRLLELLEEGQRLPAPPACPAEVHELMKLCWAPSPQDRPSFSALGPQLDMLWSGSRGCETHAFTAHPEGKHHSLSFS
As to the kind of experiment: JAK3 inhibition assay (ELISA, Poly (Glu, Ala, Tyr) coated plates). It is filed as biochemical. The conditions noted are these: 2 mM ATP, 60 minutes at 30° C. The method in brief:
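ELISA on Poly(Glu,Ala,Tyr) 6:3:1-coated plates with 2 mM ATP and 5 mM MgCl2. JAK enzyme started the reaction, run 60 min at 30° C. Phosphotyrosine was detected with HRP-conjugated 4G10 antibody and TMB, read at 450 nm, and IC50 was derived from optical densities.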
In general terms: An ELISA detects its analyte on a solid surface through an enzyme-linked reagent.

The target in another assay is KDR (Homo sapiens, UniProt P35968). As to the kind of experiment: KDR enzyme assay, coupled enzyme assay. It is filed as biochemical. As to conditions: 300 μM ATP, 10 μM poly E4Y, 30 nM KDR, 37° C. The method in brief:
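Coupled enzyme (PK/LDH, NADH) assay with 30 nM KDR in 200 mM HEPES 7.5, 10 mM MgCl2, 25 mM NaCl, 1 mM DTT, 1.5% DMSO; 300 μM ATP, 10 μM poly E4Y. Compound at 30 μM final, preincubated ~10 min at 37 °C before ATP start; rates read over 5 min at 37 °C.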

In US7446199B2, “Compositions useful as inhibitors of protein kinases” (Vertex Pharmaceuticals Incorporated, priority 2003, dated 2008) one finds Ki data, which are given here for 9 compounds.

As usually defined, the Ki is a dissociation constant, usually derived from enzyme kinetics or from competition with a known ligand. Higher therefore signals lower affinity.

KDR, sequence (P35968 20-1356): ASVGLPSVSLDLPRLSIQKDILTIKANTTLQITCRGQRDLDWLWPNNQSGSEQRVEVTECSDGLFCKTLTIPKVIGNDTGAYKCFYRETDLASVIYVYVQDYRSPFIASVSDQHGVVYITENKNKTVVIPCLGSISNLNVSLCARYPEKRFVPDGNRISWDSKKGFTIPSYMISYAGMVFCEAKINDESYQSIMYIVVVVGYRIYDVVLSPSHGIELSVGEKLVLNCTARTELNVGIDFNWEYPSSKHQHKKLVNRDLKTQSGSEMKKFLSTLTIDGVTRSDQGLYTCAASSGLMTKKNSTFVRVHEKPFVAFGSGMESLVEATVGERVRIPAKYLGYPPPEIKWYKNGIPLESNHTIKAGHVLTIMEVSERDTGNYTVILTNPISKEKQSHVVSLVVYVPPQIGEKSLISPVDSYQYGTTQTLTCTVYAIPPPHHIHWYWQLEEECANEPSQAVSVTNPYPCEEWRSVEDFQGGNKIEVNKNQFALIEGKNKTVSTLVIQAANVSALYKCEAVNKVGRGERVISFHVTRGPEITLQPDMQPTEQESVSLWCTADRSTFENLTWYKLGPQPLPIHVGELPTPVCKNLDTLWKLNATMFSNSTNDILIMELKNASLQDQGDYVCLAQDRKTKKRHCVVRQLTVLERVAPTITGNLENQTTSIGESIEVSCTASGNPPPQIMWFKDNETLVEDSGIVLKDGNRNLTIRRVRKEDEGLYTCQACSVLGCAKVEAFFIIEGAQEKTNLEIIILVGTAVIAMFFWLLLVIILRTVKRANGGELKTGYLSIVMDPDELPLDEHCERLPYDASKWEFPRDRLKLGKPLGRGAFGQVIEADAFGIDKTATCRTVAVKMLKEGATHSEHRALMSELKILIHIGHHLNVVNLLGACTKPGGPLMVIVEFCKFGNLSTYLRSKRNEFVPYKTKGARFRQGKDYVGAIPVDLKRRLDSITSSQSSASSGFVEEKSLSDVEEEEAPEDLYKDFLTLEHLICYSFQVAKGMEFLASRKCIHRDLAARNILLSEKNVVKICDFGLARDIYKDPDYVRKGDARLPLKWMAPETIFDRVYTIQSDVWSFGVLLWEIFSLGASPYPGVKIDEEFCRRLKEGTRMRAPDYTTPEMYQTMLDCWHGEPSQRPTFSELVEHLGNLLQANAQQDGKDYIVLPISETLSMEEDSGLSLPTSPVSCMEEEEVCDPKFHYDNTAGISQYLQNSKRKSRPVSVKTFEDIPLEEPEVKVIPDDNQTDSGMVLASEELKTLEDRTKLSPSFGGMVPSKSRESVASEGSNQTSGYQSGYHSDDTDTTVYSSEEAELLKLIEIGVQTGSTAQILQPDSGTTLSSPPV

As to `O=c1ccc(-c2cnc3[nH]cc(-c4oncc4-c4cccc(F)c4F)c3c2)c[nH]1` [Compound 67, 5-{3-[4-(2,3-Difluoro-phenyl)-isoxazol-5-yl]-1H-pyrrolo [2,3-b]pyridin-5-yl}-1H-pyridin-2-one], the Ki at JAK3 and at KDR was less than 200 nM each time.

Take `N#CCC(=O)N1CCC(c2cnc3[nH]cc(-c4oncc4-c4cccc(F)c4F)c3c2)CC1` [Compound 64, 3-(4-{3-[4-(2,3-Difluoro-phenyl)-isoxazol-5-yl]-1H-pyrrolo[2,3-b]pyridin-5-yl}-piperidin-1-yl)-3-oxo-propionitrile]: the results for the Ki on JAK3 and on KDR were 200 to 1000 nM and 1000 to 12500 nM, respectively.

`CN(C)CCNc1ccc(-c2cnc3[nH]cc(-c4nncn4-c4cccc(F)c4F)c3c2)cn1` [Compound 119, N′-(5-{3-[4-(2,3-Difluoro-phenyl)-4H-[1,2,4]triazol-3-yl]-1H-pyrrolo[2,3-b]pyridin-5-yl}-pyridin-2-yl)-N,N-dimethyl-ethane-1,2-diamine]: the Ki on JAK3 was in the range of 1000 to 12500 nM; at KDR, 200 to 1000 nM.

Turning to `Nc1ccnc(-c2cnc3[nH]cc(-c4oncc4-c4cccc(F)c4F)c3c2)c1` [Compound 83, 2-{3-[4-(2,3-Difluoro-phenyl)-isoxazol-5-yl]-1H-pyrrolo [2,3-b]pyridin-5-yl}-pyridin-4-ylamine], the Ki on JAK3 and on KDR was less than 200 nM in each case.

As to `C=Cc1cnc2[nH]cc(-c3oncc3-c3cccc(F)c3F)c2c1` [Compound 66, 3-[4-(2,3-Difluoro-phenyl)-isoxazol-5-yl]-5-vinyl-1H-pyrrolo[2,3-b]pyridine], the Ki at JAK3 and on KDR was less than 200 nM in each case.

`CC(=O)N1CCC(c2cnc3[nH]cc(-c4oncc4-c4cccc(F)c4F)c3c2)CC1` [Compound 63, 1-(4-{3-[4-(2,3-Difluoro-phenyl)-isoxazol-5-yl]-1H-pyrrolo[2,3-b]pyridin-5-yl}-piperidin-1-yl)-ethanone]: the Ki was 200 to 1000 nM on JAK3 and 1000 to 12500 nM on KDR.

For the compound `Fc1cccc(-c2cnoc2-c2c[nH]c3ncc(C4CCNCC4)cc23)c1F` [Compound 62, 3-[4-(2,3-Difluoro-phenyl)-isoxazol-5-yl]-5-piperidin-4-yl-1H-pyrrolo[2,3-b]pyridine], the Ki on JAK3 and at KDR was 1000 to 12500 nM in each case.

Take `Cc1noc(-c2c[nH]c3ncccc23)c1-c1cccc(F)c1F` [Compound 134, 3-[4-(2,3-Difluoro-phenyl)-3-methyl-isoxazol-5-yl]-1H-pyrrolo[2,3-b]pyridine]: the Ki at JAK3 was in the range of 200 to 1000 nM; at KDR, 1000 to 12500 nM.

As for `CNc1ccc2c(-c3oncc3-c3cccc(F)c3F)c[nH]c2n1` [Compound 102, {3-[4-(2,3-Difluoro-phenyl)-isoxazol-5-yl]-1H-pyrrolo[2,3-b]pyridin-6-yl}-methyl-amine], the Ki at JAK3 and at KDR was 1000 to 12500 nM each time.
